One series deals with TZM-bl cells. Description: Cytotoxicity in TZM-bl cells (XTT). It counts as cell-based. Conditions: for CC50: XTT, 3 days. As for the experimental part:
The cytotoxicity of test compounds in TZM-bl cells was also measured by the XTT method described previously^7. […] The soluble intracellular formazan was quantitated colorimetrically at 450 nm 4 h later. The percent of cytotoxicity and the CC50 values were calculated as above. (See Table 4)

Series [1] deals with HIV-1 pseudovirus pseudotyped with HXB2 Env. Description: microbe, parasite or virus in culture. It counts as cell-based. The conditions noted are these: single cycle assay, TZM-bl cells infected with HIV-1 pseudovirus pseudotyped with HXB2 Env.
Where [2] appears, read: Human immunodeficiency virus 1, HXB2, TZM-bl.

Bounds are passed on as bounds.
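Throughout, for IC50: endpoint is IC50 for inhibition of pseudovirus infection of TZM-bl cells.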

In the case of `Cc1ccc(-c2ccc(C(=O)NC(c3nc(C)c(CO)s3)C(C)(C)N)[nH]2)cc1F` (single isomer, unassigned) [Compound 114], the CC50 with TZM-bl cells was 17.8 ± 0.3 µM. Besides, the IC50 in series [1] turned out to be 0.34 ± 0.02 µM.

In turn, `Cc1cc(C(=O)NC(CN)c2nc(C)c(CO)s2)[nH]c1-c1ccc(Cl)cc1` (single isomer, unassigned) [Compound 98] showed a cytotoxic concentration (CC50) with TZM-bl cells of 22.2 ± 0.3 µM.

Consider `CNCC(NC(=O)c1ccc(-c2ccc(C)c(F)c2)[nH]1)c1ncc(CO)s1` (single isomer, unassigned) [Compound 117], for which the half-maximal cytotoxic concentration (CC50) in the series on TZM-bl cells stood at 27.4 ± 0.8 µM. This compound yielded an IC50 in series [1] (setting [2]) of 1 ± 0.2 µM.

In the series on TZM-bl cells, `CNCCC(NC(=O)c1ccc(-c2ccc(Cl)cc2)[nH]1)c1nc(C)c(CO)s1` (single isomer, unassigned) [Compound 83] returned a CC50 of 23 ± 0.6 µM. Moreover, in series [1], the IC50 stood at 1.7 ± 0.2 µM.

Compound `Cc1nc(C(CN)NC(=O)c2ccc(-c3ccc(Cl)cc3)[nH]2)sc1CN` (single isomer, unassigned) [Compound 108] yielded a CC50 with TZM-bl cells of 14.6 ± 0.2 µM. Further, the midpoint of inhibition in series [1] (setting [2]), the IC50, lay at 12.1 ± 0.5 µM.

For the compound `Cc1nc(C(NC(=O)c2ccc(-c3ccc(Cl)c(F)c3)[nH]2)C2CCCCN2)sc1CCO` (single isomer, unassigned) [Compound 27], the half-maximal cytotoxic concentration (CC50) in the series on TZM-bl cells is 15.1 ± 0.2 µM. The same compound showed a 50% inhibitory concentration (IC50) in series [1] of 8 ± 0.1 µM.

`CNCC(NC(=O)c1ccc(-c2ccc(Cl)c(F)c2)[nH]1)c1nc(C)c(CO)s1` (single isomer, unassigned) [Compound 57] returned a 50% cytotoxic concentration (CC50) with TZM-bl cells of around 20 µM. This compound also gave an IC50 in series [1] of around 0.6 µM.

Take `Cc1ccc(-c2ccc(C(=O)NC(c3nc(C)c(CO)s3)C3CCCCN3)[nH]2)cc1F` (single isomer, unassigned) [Compound 23]: the half-maximal cytotoxic concentration (CC50) in the series on TZM-bl cells was at least 36 µM. This compound yielded an IC50 in series [1] of 3.8 ± 0.3 µM.

As to `Cc1nc(C(CN(C)C)NC(=O)c2ccc(-c3ccc(Cl)c(F)c3)[nH]2)sc1CO` (single isomer, unassigned) [Compound 68], the cytotoxic concentration (CC50) with TZM-bl cells is around 29 µM. The compound also gave an IC50 in series [1] of 7.2 ± 3 µM.

Regarding `Cc1nc(C(CN)NC(=O)c2ncc(-c3ccc(Cl)cc3)[nH]2)sc1CO` (single isomer, unassigned) [Compound 96], the CC50 with TZM-bl cells is above 51 µM. Besides, in series [1], the half-maximal inhibitory concentration (IC50) was around 51 µM.

Compound `Cc1nc(C(CCN(C)C)NC(=O)c2ccc(-c3ccc(Cl)cc3)[nH]2)sc1CO` (single isomer, unassigned) [Compound 77] displayed a CC50 in the series on TZM-bl cells of 40.2 ± 3 µM. In series [1], half-maximal inhibition (IC50) was put at 10.4 ± 2 µM.

With `Cc1nc(C(CNC(=N)N)NC(=O)c2ccc(-c3ccc(Cl)cc3)[nH]2)sc1CO` (single isomer, unassigned) [Compound 46], in the series on TZM-bl cells, the 50% cytotoxic concentration (CC50) is above 37 µM. The 50% inhibitory concentration (IC50) in series [1] is at least 20 µM.

`CC(C)(N)C(NC(=O)c1ccc(-c2ccc(Cl)c(F)c2)[nH]1)c1ncc(CO)s1` (single isomer, unassigned) [Compound 124] had a half-maximal cytotoxic concentration (CC50) in the series on TZM-bl cells of 16.3 ± 0.6 µM. In series [1], this compound showed an IC50 of 0.46 ± 0.01 µM.

For the compound `CNCC(NC(=O)c1ccc(-c2ccc(Cl)c(F)c2)[nH]1)c1ncc(CO)s1` (single isomer, unassigned) [Compound 115], in the series on TZM-bl cells, the CC50 was 17.3 ± 0.5 µM. The compound also registered a half-maximal inhibitory concentration (IC50) in series [1] (setting [2]) of 0.95 ± 0.03 µM.

`Cc1nc(C(CN)NC(=O)c2ccc(-c3ccc(Cl)cc3)[nH]2)sc1CO` (single isomer, unassigned) [Compound 40] registered a CC50 in the series with TZM-bl cells of around 40 µM.

In the series on TZM-bl cells, `Cc1nc(C(NC(=O)c2ccc(-c3ccc(Cl)cc3)[nH]2)C2CCCCN2)[nH]c1CO` (single isomer, unassigned) [Compound 34] had a CC50 of 34 ± 0.1 µM. In series [1], the 50% inhibitory concentration (IC50) came out at 16 ± 0.1 µM.

The compound `Cc1ccc(-c2ccc(C(=O)NC(CCN(C)C)c3nc(C)c(CO)s3)[nH]2)cc1F` (single isomer, unassigned) [Compound 73] registered a CC50 in the series with TZM-bl cells of 37.1 ± 5.7 µM. Besides, in series [1], the IC50 came to 6.6 ± 0.2 µM.

`Cc1nc(C(CNC(=N)N)NC(=O)c2ccc(-c3ccc(Cl)c(F)c3)[nH]2)sc1CO` (single isomer, unassigned) [Compound 47] yielded a cytotoxic concentration (CC50) in the series with TZM-bl cells above 36 µM. The compound also registered a concentration for half-maximal inhibition (IC50) in series [1] of at least 20 µM.

On to `Cc1cc(-c2ccc(Cl)cc2)[nH]c1C(=O)NC(CN)c1nc(C)c(CO)s1` (single isomer, unassigned) [Compound 70], for which the CC50 in the series with TZM-bl cells is 26.4 ± 0.7 µM. Also, the IC50 in series [1] was 1.1 ± 0.3 µM.

For `CC(=O)NCC(NC(=O)c1ccc(-c2ccc(Cl)c(F)c2)[nH]1)c1nc(C)c(CO)s1` (single isomer, unassigned) [Compound 61], in the series on TZM-bl cells, the CC50 is above 44 µM.

For `Cc1nc(C(CNC(C)C)NC(=O)c2ccc(-c3ccc(Cl)cc3)[nH]2)sc1CO` (single isomer, unassigned) [Compound 107], the CC50 with TZM-bl cells was 28.5 ± 3.5 µM. This compound gave a concentration for half-maximal inhibition (IC50) in series [1] (setting [2]) of 4.2 ± 0.3 µM.

For `CNCC(NC(=O)c1ccc(-c2ccc(C)c(F)c2)[nH]1)c1nc(C)c(CO)s1` (single isomer, unassigned) [Compound 55], the CC50 in the series on TZM-bl cells was around 40 µM.

In the series with TZM-bl cells, `Cc1nc(C(NC(=O)c2ccc(-c3ccc(Cl)c(F)c3)[nH]2)C2CCCCN2)sc1CO` (single isomer, unassigned) [Compound 21] came in with a CC50 of 17.4 ± 1.6 µM. In addition, the midpoint of inhibition in series [1], the IC50, lay at 3.2 ± 0.5 µM.

For the compound `NCC(NC(=O)c1ccc(-c2ccc(Cl)cc2)[nH]1)c1ncc(CO)s1` (single isomer, unassigned) [Compound 103], the CC50 in the series with TZM-bl cells was 37.1 ± 0.3 µM. The IC50 in series [1] (setting [2]) was found to be 0.75 ± 0.2 µM.

`Cc1nc(C(NC(=O)c2ccc(-c3ccc(Cl)cc3)[nH]2)C2CCCCN2)sc1CCO` (single isomer, unassigned) [Compound 29] registered a CC50 with TZM-bl cells of 15.4 ± 0.3 µM. In series [1], this compound gave an IC50 of 5.9 ± 0.2 µM.

In the series with TZM-bl cells, `Cc1nc(C(CN)NC(=O)c2ccc(-c3ccc(Cl)cc3)n2C)sc1CO` (single isomer, unassigned) [Compound 92] yielded a CC50 of 36.7 ± 0.4 µM. The compound also yielded an IC50 in series [1] of 25.8 ± 1.1 µM.

The compound `Cc1cc(-c2ccc(Cl)cc2)[nH]c1C(=O)NC(CN)c1nc(C)c(CO)s1` (single isomer, unassigned) [Compound 69] returned a CC50 with TZM-bl cells of 27.2 ± 0.8 µM.

Take `Cc1nc(C(CN)NC(=O)c2cnc(-c3ccc(Cl)cc3)[nH]2)sc1CO` (single isomer, unassigned) [Compound 94]: the CC50 with TZM-bl cells was above 51 µM.

Regarding `Cc1ccc(-c2ccc(C(=O)NC(CN)c3ncc(CO)s3)[nH]2)cc1F` (single isomer, unassigned) [Compound 100], it took 39.2 ± 0.8 µM to reach half-maximal cytotoxicity with TZM-bl cells (CC50).

In the series with TZM-bl cells, `Cc1nc(C(CN)NC(=O)c2ccc(-c3ccc(Cl)c(F)c3)[nH]2)sc1CO` (single isomer, unassigned) [Compound 52] displayed a cytotoxic concentration (CC50) of 50.5 ± 1.3 µM.

Turning to `CNc1cc(NC(=O)c2ccc(-c3ccc(F)c(Cl)c3)[nH]2)nc(NC(=N)N)n1` [Compound 53], the CC50 in the series on TZM-bl cells was at least 36 µM.

`Cc1nc(C(CN)NC(=O)c2ccc(-c3ccc(Cl)c(F)c3)[nH]2)sc1CO` (single isomer, unassigned) [Compound 42]: the half-maximal cytotoxic concentration (CC50) with TZM-bl cells is at least 33 µM.

On to `Cc1nc(C(CN(C)C)NC(=O)c2ccc(-c3ccc(Cl)cc3)[nH]2)sc1CO` (single isomer, unassigned) [Compound 63], for which the CC50 with TZM-bl cells was around 30 µM.

`Cc1nc(C(CN)NC(=O)c2ccc(-c3ccc(F)c(F)c3)[nH]2)sc1CO` (single isomer, unassigned) [Compound 122] showed a CC50 in the series with TZM-bl cells above 51 µM. Besides, in the series with TZM-bl cells (printed "(30%)" without explanation, presumably toxicity at 51 μM), the “percentage in brackets after CC50 >51” value was 30%.

Regarding `CNCC(NC(=O)c1ccc(-c2ccc(Cl)cc2)[nH]1)c1nc(C)c(CO)s1` (single isomer, unassigned) [Compound 59], the CC50 in the series on TZM-bl cells is around 22 µM.

`CC(=O)NCC(NC(=O)c1ccc(-c2ccc(Cl)c(F)c2)[nH]1)c1nc(C)c(CO)s1` (single isomer, unassigned) [Compound 60] returned a half-maximal cytotoxic concentration (CC50) in the series on TZM-bl cells above 44 µM.
